How the values were obtained:
P[19] VP8* [1] = biological target: T1, P[19] VP8* (Human rotavirus A, UniProt A7YCM0); assay: 1H-15N HSQC NMR titration; assay type: binding; settings: 20°C, pH 8.0, 10 mM Tris-HCl, 100 mM NaCl; 0.25 mM 15N-labelled VP8*, GST removed
T1 construct: gene VP4; VP8* domain (aa 46-231) of spike polyprotein VP4; E. coli BL21 GST fusion; GST cut with thrombin for NMR, kept in ELISA and glycan array
From the text: 1H-15N HSQC NMR titration on P[19]

P[8] VP8* = biological target: T2, P[8] VP8* (Human rotavirus A, UniProt A0A509GLV6); assay: ELISA-based oligosaccharide binding; settings: GST-VP8*; labelled compound (biotin conjugate, multivalent); weak signal
T2 construct: VP8* domain of spike polyprotein VP4; GST fusion from E. coli BL21
From the text: ELISA-based oligosaccharide binding on P[8] […] RVs

P[4] VP8* = biological target: T3, P[4] VP8* (Human rotavirus (SEROTYPE 2 / STRAIN DS1), UniProt P11196); assay: ELISA-based oligosaccharide binding; settings: GST-VP8*; labelled compound (biotin conjugate, multivalent); weak signal
T3 construct: VP8* domain of spike polyprotein VP4; GST fusion from E. coli BL21; DS1 is only the modelling template
From the text: ELISA-based oligosaccharide binding on P[4] […] RVs

P[19] VP8* [2] = biological target: T1, P[19] VP8*; assay: ELISA-based oligosaccharide binding; settings: GST-VP8*; labelled compound (biotin conjugate, multivalent); weak signal
From the text: ELISA-based oligosaccharide binding on P[19] […] RVs recognized LNFPI and LNT | Low binding signals were detected for all four P[II] RVs

SMILES | Kd (P[19] VP8* [1]) | ELISA-based oligosaccharide binding (P[8] VP8*) | ELISA-based oligosaccharide binding (P[4] VP8*) | ELISA-based oligosaccharide binding (P[19] VP8* [2])
CC(=O)N[C@H]1[C@H](O[C@H]2[C@@H](O)[C@@H](CO)O[C@@H](O[C@H]3[C@H](O)[C@@H](O)C(O)O[C@@H]3CO)[C@@H]2O)O[C@H](CO)[C@@H](O)[C@@H]1O[C@@H]1O[C@H](CO)[C@H](O)[C@H](O)[C@H]1O[C@@H]1O[C@@H](C)[C@@H](O)[C@@H](O)[C@@H]1O (stereo partly shown) [LNFPI, Fucα1-2Galβ1-3GlcNAcβ1-3Galβ1-4Glc] | 2600 µM | – | – | –
CC(=O)N[C@H]1C(O)O[C@H](CO)[C@@H](O)[C@@H]1O[C@@H]1O[C@H](CO)[C@H](O)[C@H](O)[C@H]1O (stereo partly shown) [lacto-N-biose, Galβ1-3GlcNAc] | – | Low binding signals were detected for all four P[II] RVs | Low binding signals were detected for all four P[II] RVs | Low binding signals were detected for all four P[II] RVs

— PMC5068545, “Glycan Specificity of P[19] Rotavirus and Comparison with Those of Related P Genotypes” (Journal of Virology, 2016)
